The record followed here is patent US20260027118A1, “COMPOSITIONS USEFUL FOR MODULATING SPLICING” (Skyhawk Therapeutics, Inc., priority 2022, published 2026).

Assay [1] has as its system ATXN3 transcripts containing exon 4. Briefly: ATXN3 Quantitative Splicing Assay (qPCR, E4E5 primers/probe). The note with it: Homo sapiens; SK-N-MC cells, treated with compounds for 24 h, qPCR of transcripts containing exon 4. In kind it is cell-based, Human. The procedure: Human neuroblastoma SK-N-MC cells were plated in 384-well plates at 20,000 cells/well. Twenty-four hours after plating, cells were treated with compounds for 24 h at appropriate concentrations ranging from 30.M to 0.6 nM (0.300 DMS0). Treated cells were lysed in 15 μL of lysis buffer, and cDNA was synthesized using the Fast Advanced Cells-to-Ct kit. Two μL of each cDNA was used in qPCR reactions to confirm the exon 4 skipped transcripts of ATXN3. A second set of primers/probe E4E5 was used to detect the transcripts containing exon 4. The third set of primers/probe E8E9 was used to detect total gene level of ATXN3. The qPCR reactions were prepared in 384-well plates in 10 μL volume, using TaqMan™ Fast Advanced Master Mix with primers and probes shown in the table below. Reactions were run in a Quant Studio 6 qPCR instrument with default settings.
The primers and probes are listed below in Table 4.

For assay [2], the system named is total ATXN3 protein. Nature of the assay: ATXN3 total protein assay (Mesoscale Discovery). In kind it is cell-based, Human. The note with it: SK-N-MC cells, 48 hours incubation, MSD assay. How it is done: Human neuroblastoma SK-N-MC cells were seeded at 10,000 cells/well in 384 well plates one day prior to compound treatment. The concentrations of compounds were tested at appropriate doses ranging from 30 μM to 0.6 nM. After incubation for 48 hours, the cells were lysed with 25 μL of lysis buffer containing protease inhibitors, and total ATXN3 protein levels were assessed by Mesoscale Discovery (MSD) assay developed with one pair of anti-ATXN3 antibodies. The capture and detect antibodies were raised in mouse and rabbit respectively. Anti-rabbit MSD-ST antibody was used for secondary antibody. ATXN3 recombinant protein was used for standards. The readouts were captured with 35 μL of MSD read buffer and multi-array 384-well high binding plates.

The test system of assay [3] is ATXN3-HiBiT protein. Briefly: ATXN3 HiBiT assay (Nano Glo HiBiT luminescence). In kind it is cell-based. The note with it: Kelly-ATXN3-HiBiT cells, luminescence read out 48 h after addition of the compound. The text has this:
To monitor ATXN3 protein levels by luminescence, a Kelly-ATXN3-HiBiT cell line with homozygous knock-in of HiBiT at the C-terminus of the endogenous ATXN3 gene was used (knock-in of the HiBiT-tag coding sequence SEQ ID NO. 14: 5′[…]3′ into exon 11 of ATXN3 -position 1114 of ATXN3 RefSeq NM_004993.6). Manipulations of the Kelly-ATXN3-HiBiT cell line that result in downregulation of the ATXN3-HiBiT protein (through modulation of ATXN3-HiBiT pre-mRNA splicing) can be followed by monitoring the luminescence signal of the HiBiT tag using the Nano Glo HiBiT Lytic Detection System (Promega, #N3050). Kelly-ATXN3-HiBiT cells were maintained in RPMI 1640 w/Glutamax (Gibco, #61870010), 10% FBS (Sigma Aldrich, #F8687), 1% Penicillin/Streptomycin (Gibco, #15140-122) at 37° C., 5% CO2. To assess HiBiT-luminescence signal upon compound treatment, 2000 Kelly-ATXN3-HiBiT cells were seeded per well in 384 plate format. Compounds were added 24 h after seeding. ATXN3-HiBiT-luminescence signal was read out 48 h after addition of the compound using the Nano Glo HiBiT Lytic Detection System (Promega, #N3050) according to the manufacturer's instructions. To control for cell viability, an identically prepared sister plate was read out with the CellTiter-Glo® 2.0 Assay (Promega, #G9243) according to the manufacturer's instructions. Fold changes of ATXN3-HiBiT-luminescence and of CellTiter-Glo viability signals were calculated relative to a DMSO control condition.
For orientation: The HiBiT peptide binds its large partner to form an active luciferase.

In the case of `C[C@H](F)[C@H](N)Cc1oc2c(NCc3cccs3)cc(Cl)nc2c1C#CC1CC1` [Compound 8, 2-[(2R,3S)-2-amino-3-fluorobutyl]-5-chloro-3-(2-cyclopropylethynyl)-7-thenylamino-1-oxa-4-azaindene], the IC50 in assay [1] fell in the range of 101 to 500 nM; in assay [2] it was 501 to 5000 nM. Moreover, in assay [3], the EC50 lay in the range of 101 to 500 nM.

`C[C@H](N)Cc1oc2c(NCc3ccco3)cc(Cl)nc2c1C#CC1CC1` [Compound 9, 2-[(S)-2-aminopropyl]-5-chloro-3-(2-cyclopropylethynyl)-7-(furfurylamino)-1-oxa-4-azaindene]: the IC50 in assay [1] and in assay [2] was 501 to 5000 nM each time. In addition, in assay [3], the EC50 is 501 to 5000 nM.

With `C[C@H](N)Cc1oc2c(NCc3cccs3)cc(Cl)nc2c1C#CC1CC1` [Compound 10, 2-[(S)-2-aminopropyl]-5-chloro-3-(2-cyclopropylethynyl)-7-thenylamino-1-oxa-4-azaindene], the IC50 in assay [1] and in assay [2] was 501 to 5000 nM in each case. Besides, the EC50 in assay [3] is 501 to 5000 nM.

On to `CC#Cc1c(C[C@@H](N)[C@H](C)F)oc2c(NCc3ccccc3)cc(Cl)nc12` [Compound 11, 2-[(2R,3S)-2-amino-3-fluorobutyl]-7-benzylamino-5-chloro-3-(1-propynyl)-1-oxa-4-azaindene], for which the IC50 lay within 0.01 to 100 nM in assay [1] and 101 to 500 nM in assay [2]. For the same molecule, the EC50 in assay [3] lay in the range of 0.01 to 100 nM.

Take `CC#Cc1c(C[C@@H](N)[C@H](C)F)oc2c(NCc3nccs3)cc(Cl)nc12` [Compound 12, 2-[(2R,3S)-2-amino-3-fluorobutyl]-5-chloro-3-(1-propynyl)-7-{[(1,3-thiazol-2-yl)methyl]amino}-1-oxa-4-azaindene]: the IC50 lay in the range of 0.01 to 100 nM in assay [1] and 101 to 500 nM in assay [2]. This molecule returned an EC50 in assay [3] of 0.01 to 100 nM.

`CC#Cc1c(C[C@@H](N)C2CC(F)(F)C2)oc2c(NCc3cccs3)cc(Cl)nc12` [Compound 15, 2-[(R)-2-amino-2-(3,3-difluorocyclobutyl)ethyl]-5-chloro-3-(1-propynyl)-7-thenylamino-1-oxa-4-azaindene]: the IC50 in assay [1] and in assay [2] was 501 to 5000 nM each time. The same molecule showed an EC50 in assay [3] of 501 to 5000 nM.

Regarding `CCC#Cc1c(C[C@H](C)N)oc2c(NCc3cccs3)cc(Cl)nc12` [Compound 16, 2-[(S)-2-aminopropyl]-3-(1-butynyl)-5-chloro-7-thenylamino-1-oxa-4-azaindene], the IC50 in assay [1] and in assay [2] was 101 to 500 nM in each case. For the same molecule, the EC50 in assay [3] lay in the range of 101 to 500 nM.

For `C[C@H](N)Cc1oc2c(NCc3cccs3)cc(Cl)nc2c1C#CCF` [Compound 19, 2-[(S)-2-aminopropyl]-5-chloro-3-(3-fluoro-1-propynyl)-7-thenylamino-1-oxa-4-azaindene], the IC50 in assay [1] and in assay [2] was 101 to 500 nM throughout. For the same molecule, the EC50 in assay [3] lay in the range of 101 to 500 nM.

As for `CC#Cc1c(C[C@@H](N)COC)oc2c(NCc3cccs3)cc(Cl)nc12` [Compound 21, 2-[(R)-2-amino-3-methoxypropyl]-5-chloro-3-(1-propynyl)-7-thenylamino-1-oxa-4-azaindene], the IC50 in assay [1] is 0.01 to 100 nM; in assay [2], 101 to 500 nM. Moreover, the EC50 in assay [3] lay within 0.01 to 100 nM.

Regarding `CCC#Cc1c(C[C@H](C)N)oc2c(NCc3ccco3)cc(Cl)nc12` [Compound 22, 2-[(S)-2-aminopropyl]-3-(1-butynyl)-5-chloro-7-(furfurylamino)-1-oxa-4-azaindene], the IC50 in assay [1] lay in the range of 101 to 500 nM; in assay [2], 501 to 5000 nM. The molecule also came in with an EC50 in assay [3] of 501 to 5000 nM.

On to `CC#Cc1cc(NCc2cccs2)c2oc(C[C@@H](N)C3CC(F)(F)C3)c(C#CC)c2n1` [Compound 23, 2-[(R)-2-amino-2-(3,3-difluorocyclobutyl)ethyl]-3,5-bis(1-propynyl)-7-thenylamino-1-oxa-4-azaindene], for which the results for the IC50 in assay [1] and in assay [2] were 5000 to 10000 nM and 10000 to 40000 nM, respectively. The EC50 in assay [3] fell in the range of 501 to 5000 nM.

Regarding `CC#Cc1c(C[C@@H](N)C2CC2)oc2c(NCc3cccs3)cc(Cl)nc12` [Compound 24, 2-[(R)-2-amino-2-cyclopropylethyl]-5-chloro-3-(1-propynyl)-7-thenylamino-1-oxa-4-azaindene], the IC50 in assay [1] and in assay [2] was 501 to 5000 nM each time. In assay [3], the EC50 fell in the range of 501 to 5000 nM.

As for `CC#Cc1cc(NCc2cccs2)c2oc(C[C@@H](N)C3CC3)c(C#CC)c2n1` [Compound 25, 2-[(R)-2-amino-2-cyclopropylethyl]-3,5-bis(1-propynyl)-7-thenylamino-1-oxa-4-azaindene], the IC50 in assay [1] and in assay [2] was 10000 to 40000 nM in each case. The same molecule gave an EC50 in assay [3] of 5000 to 10000 nM.

`C[C@H](N)Cc1oc2c(NCc3cccs3)cc(Cl)nc2c1C#CCO` [Compound 26, 3-{2-[(S)-2-aminopropyl]-5-chloro-7-thenylamino-1-oxa-4-aza-3-indenyl}-2-propyn-1-ol]: the IC50 was 101 to 500 nM in assay [1] and 501 to 5000 nM in assay [2]. The same molecule came in with an EC50 in assay [3] of 101 to 500 nM.

Consider `C[C@H](N)Cc1oc2c(NCc3ccco3)cc(Cl)nc2c1C#CCO` [Compound 27, 3-{2-[(S)-2-aminopropyl]-5-chloro-7-(furfurylamino)-1-oxa-4-aza-3-indenyl}-2-propyn-1-ol], for which the IC50 in assay [1] and in assay [2] was 501 to 5000 nM each time. The EC50 in assay [3] was in the range of 501 to 5000 nM.

Turning to `CC#Cc1cc(NCc2cccs2)c2oc(C[C@H](C)N)c(C#CC)c2n1` [Compound 28, 2-[(2S)-2-aminopropyl]-3,5-bis(prop-1-yn-1-yl)-N-(thiophen-2-ylmethyl)furo[3,2-b]pyridin-7-amine], the IC50 in assay [1] and in assay [2] was 501 to 5000 nM throughout. In addition, the EC50 in assay [3] fell in the range of 501 to 5000 nM.

Take `CC#Cc1c(C(F)(F)[C@H](C)N)oc2c(NCc3cccs3)nc(Cl)nc12` [Compound 33, 2-[(S)-2-amino-1,1-difluoropropyl]-5-chloro-3-(1-propynyl)-7-thenylamino-1-oxa-4,6-diazaindene]: the IC50 is 101 to 500 nM in assay [1] and 501 to 5000 nM in assay [2]. This molecule yielded an EC50 in assay [3] of 101 to 500 nM.

With `CC#Cc1c(C[C@H](C)N)oc2c(NCc3cccs3)c(F)c(Cl)nc12` [Compound 36], the IC50 in assay [1] and in assay [2] was 501 to 5000 nM each time. Moreover, the EC50 in assay [3] fell in the range of 501 to 5000 nM.

As to `CC#Cc1c(C[C@@H](N)COC)oc2c(NCc3nccs3)cc(Cl)nc12` [Compound 38, 2-[(R)-2-amino-3-methoxypropyl]-5-chloro-3-(1-propynyl)-7-{[(1,3-thiazol-2-yl)methyl]amino}-1-oxa-4-azaindene], the IC50 in assay [1] and in assay [2] was 101 to 500 nM in each case. In assay [3], the EC50 was 101 to 500 nM.

For `CC#Cc1c(C[C@@H](N)COC)oc2c(NCc3ccco3)cc(Cl)nc12` [Compound 39, 2-[(R)-2-amino-3-methoxypropyl]-5-chloro-7-(furfurylamino)-3-(1-propynyl)-1-oxa-4-azaindene], the IC50 in assay [1] lay in the range of 101 to 500 nM; in assay [2] it was 0.01 to 100 nM. Moreover, the EC50 in assay [3] is 0.01 to 100 nM.

With `CC#Cc1c(C[C@@H](N)[C@H](C)F)oc2c(NCc3ccco3)nc(Cl)nc12` [Compound 41, 2-[(2R,3S)-2-amino-3-fluorobutyl]-5-chloro-7-(furfurylamino)-3-(1-propynyl)-1-oxa-4,6-diazaindene], the IC50 in assay [1] and in assay [2] was 0.01 to 100 nM each time. The EC50 in assay [3] lay in the range of 0.01 to 100 nM.

As to `[2H]C([2H])(OC)[C@H](N)Cc1oc2c(NCc3cccs3)cc(Cl)nc2c1C#CC` [Compound 46, 2-[(R)-2-amino-3-methoxy(3,3- ^2H2)propyl]-5-chloro-3-(1-propynyl)-7-thenylamino-1-oxa-4-azaindene], the IC50 in assay [1] lay within 0.01 to 100 nM; in assay [2], 101 to 500 nM. In assay [3], this molecule showed an EC50 of 0.01 to 100 nM.

As a reminder, the IC50 is the point on the concentration scale where inhibition reaches its midpoint. By EC50 is commonly meant the concentration needed to bring the measured effect to its halfway point. Lower therefore signals greater potency.
